Species on record: Homo sapiens
Assay: Compound was evaluated for inhibition of ex vivo ADP mediated platelet aggregation of human gel filtered platelets
Assay type: functional

Row | Compound | IC50 [nM]
1 | O=C(O)CCNC(=O)c1cc2c(s1)CCN(CCC1CCNCC1)C2=O | 150
2 | C[C@H](CC(=O)O)NC(=O)c1cc2c(s1)CCN(CCC1CCNCC1)C2=O | 220
3 | CCCCS(=O)(=O)N[C@@H](CNC(=O)c1csc2c1C(=O)N(CCC1CCNCC1)CC2)C(=O)O | 33000
4 | O=C(O)CCCC(=O)c1cc2c(s1)CCN(CCC1CCNCC1)C2=O | 260

The next compounds have a lower IC50 than those just listed; values first:

Row | IC50 [nM] | Compound
5 | 25 | O=C(NCc1ccccc1)N[C@@H](CNC(=O)c1cc2c(s1)CCN(CCC1CCNCC1)C2=O)C(=O)O
6 | 25 | O=C(O)CCNC(=O)c1ccc2c(c1)C(=O)N(CCC1CCNCC1)C2
7 | 13 | O=C(NC[C@H](NS(=O)(=O)c1cccnc1)C(=O)O)c1cc2c(s1)CCN(CCC1CCNCC1)C2=O
8 | 8 | CCCCS(=O)(=O)N[C@@H](CNC(=O)c1cc2c(s1)CCN(CCC1CCNCC1)C2=O)C(=O)O
9 | 7 | O=C(NC[C@H](NS(=O)(=O)c1ccccc1)C(=O)O)c1cc2c(s1)CCN(CCC1CCNCC1)C2=O

Reference: ChEMBL document CHEMBL1128934, “Nonpeptide glycoprotein IIB/IIIA inhibitors. 12. Potent and orally active centrally constrained thieno[2,3-c]pyridones” (Bioorg Med Chem Lett, 1996)
